ChEMBL document CHEMBL5537177, “Discovery of Potent Antimalarial Type II Kinase Inhibitors with Selectivity over Human Kinases” (J Med Chem, 2024)

Legend:
[1] = Selectivity index, ratio of EC50 for human HepG2 cells to EC50 for multidrug-resistant Plasmodium falciparum Dd2 at ring stage infected in A+ erythrocytes; format: toxicity, cell-based; conditions: read-out: Ratio EC50
[2] = Selectivity index, ratio of EC50 for human MCF7 cells to EC50 for multidrug-resistant Plasmodium falciparum Dd2 at ring stage infected in A+ erythrocytes; format: toxicity, cell-based; conditions: read-out: Ratio EC50
[3] = system: Plasmodium falciparum; experiment: Antiplasmodial activity against drug-sensitive Plasmodium falciparum 3D7 at ring stage infected in A+ erythrocytes assessed as parasite growth reduction incubated for 72 hrs by SYBR Green I dye based analysis; format: functional, organism-based; conditions: 3D7, Erythrocyte
[4] = system: Plasmodium falciparum; experiment: Antiplasmodial activity against multidrug-resistant Plasmodium falciparum Dd2 at ring stage infected in A+ erythrocytes assessed as parasite growth reduction incubated for 72 hrs by SYBR Green I dye based analysis; format: functional, organism-based; conditions: Dd2, Erythrocyte
[5] = system: HepG2; experiment: Cytotoxicity against human HepG2 cells assessed as reduction in cell viability incubated for 48 hrs by MTS assay; format: toxicity, cell-based; conditions: hepg2
[6] = system: MCF7; experiment: Cytotoxicity against human MCF7 cells assessed as reduction in cell viability incubated for 48 hrs by MTS assay; format: toxicity, cell-based; conditions: mcf7
[7] = system: Plasmodium falciparum; experiment: Resistance index, ratio of EC50 for multidrug-resistant Plasmodium falciparum Dd2 at ring stage infected in A+ erythrocytes to EC50 for drug-sensitive Plasmodium falciparum 3D7 at ring stage infected in A+ erythrocytes; format: organism-based; conditions: human
[8] = Metabolic stability in mouse liver microsomes assessed as half life; format: ADME, Liver cells
[9] = Metabolic stability in mouse liver microsomes assessed as intrinsic clearance; format: ADME, Liver cells

Row | SMILES | selectivity ratio [1] | selectivity ratio [2] | EC50 [3] | EC50 [4] | EC50 [5] | EC50 [6] | Ratio EC50 [7] | t1/2 [8] | intrinsic clearance [9]
1 | CCN1CCN(Cc2ccc(NC(=O)c3ccc(F)c(NC(=O)c4cncc(-c5cccs5)c4)c3)cc2C(F)(F)F)CC1 | 2.4 | 3.9 | 763 nM | 1320 nM | 3170 nM | 5100 nM | 1.7 | – | –
2 | CCN1CCN(Cc2ccc(NC(=O)c3cc(Cl)cc(Nc4cncc(-c5cccs5)c4)c3)cc2C(F)(F)F)CC1 | 12 | 19 | 253 nM | 296 nM | 3620 nM | 5530 nM | 1.2 | – | –
3 | CCN1CCN(Cc2ccc(NC(=O)c3cc(Br)cc(NC(=O)c4cncc(-c5cccs5)c4)c3)cc2C(F)(F)F)CC1 | 72 | 108 | 39 nM | 61 nM | 4380 nM | 6590 nM | 1.6 | 40.7 min | 17 µL/min/mg
4 | CCN1CCN(Cc2ccc(NC(=O)c3cc(Cl)cc(NC(=O)c4ccccc4)c3)cc2C(F)(F)F)CC1 | 15 | 12 | 361 nM | 493 nM | 7240 nM | 6070 nM | 1.4 | – | –
5 | CCN1CCN(Cc2ccc(NC(=O)c3cc(Cl)cc(NC(=O)c4cncc(C#N)c4)c3)cc2C(F)(F)F)CC1 | 58 | 40 | 186 nM | 191 nM | 11000 nM | 7580 nM | 1 | – | –
6 | CCN1CCN(Cc2ccc(NC(=O)c3cc(Cl)cc(NC(=O)N4CCN(C)CC4)c3)cc2C(F)(F)F)CC1 | 11 | 15 | 2120 nM | 1230 nM | 14000 nM | 18800 nM | 0.6 | – | –
7 | CCN1CCN(Cc2ccc(NC(=O)c3cncc(NC(=O)c4cncc(-c5cccs5)c4)c3)cc2C(F)(F)F)CC1 | 34 | 62 | 70 nM | 76 nM | 2550 nM | 4710 nM | 1.1 | 19.1 min | 36 µL/min/mg
8 | CCN1CCN(Cc2ccc(NC(=O)c3cc(Cl)cc(NC(=O)c4cnc(N)nc4)c3)cc2C(F)(F)F)CC1 | 27 | 19 | 378 nM | 709 nM | 19200 nM | 13700 nM | 1.9 | – | –
9 | CCN1CCN(Cc2ccc(NC(=O)c3cc(Cl)cc(C(=O)Nc4cncc(-c5cccs5)c4)c3)cc2C(F)(F)F)CC1 | 39 | 49 | 82 nM | 109 nM | 4240 nM | 5360 nM | 1.3 | – | –
10 | CCN1CCN(Cc2ccc(NC(=O)c3ccc(OC)c(NC(=O)c4cncc(-c5cccs5)c4)c3)cc2C(F)(F)F)CC1 | 2.1 | 3.3 | 821 nM | 1540 nM | 3240 nM | 5060 nM | 1.9 | – | –
11 | CCN1CCN(Cc2ccc(NC(=O)c3cc(NC(=O)c4cncc(-c5cccs5)c4)cc(C(F)(F)F)c3)cc2C(F)(F)F)CC1 | 92 | 114 | 35 nM | 31 nM | 2850 nM | 3540 nM | 0.9 | 41.4 min | 17 µL/min/mg
12 | CCN1CCN(Cc2ccc(NC(=O)c3cc(NC(=O)c4cncc(-c5cccs5)c4)c(C)cc3F)cc2C(F)(F)F)CC1 | 2.6 | 4.4 | 1460 nM | 1580 nM | 4050 nM | 6910 nM | 1.1 | – | –
13 | CCN1CCN(Cc2ccc(NC(=O)c3cc(Cl)cc(NC(=O)c4cncc(-c5cncs5)c4)c3)cc2C(F)(F)F)CC1 | 109 | 145 | 74 nM | 56 nM | 6080 nM | 8140 nM | 0.8 | 52.1 min | 13 µL/min/mg
14 | CCN1CCN(Cc2ccc(NC(=O)c3ccnc(NC(=O)c4cncc(-c5cccs5)c4)c3)cc2C(F)(F)F)CC1 | 5.2 | 8 | 356 nM | 579 nM | 3030 nM | 4610 nM | 1.6 | – | –
15 | CCN1CCN(Cc2ccc(NC(=O)c3cc(Cl)cc(NC(=O)c4cncnc4)c3)cc2C(F)(F)F)CC1 | 33 | 29 | 395 nM | 520 nM | 17300 nM | 15300 nM | 1.3 | – | –
16 | CCN1CCN(Cc2ccc(NC(=O)c3cc(Cl)cc(NC(=O)c4cncc(-c5ccccc5)c4)c3)cc2C(F)(F)F)CC1 | 66 | 87 | 41 nM | 50 nM | 3290 nM | 4350 nM | 1.2 | 50.2 min | 14 µL/min/mg
17 | CCN1CCN(Cc2ccc(NC(=O)c3cc(F)cc(NC(=O)c4cncc(-c5cccs5)c4)c3)cc2C(F)(F)F)CC1 | 50 | 76 | 113 nM | 135 nM | 6690 nM | 10200 nM | 1.2 | 32.4 min | 21 µL/min/mg
18 | CCN1CCN(Cc2ccc(NC(=O)c3cc(Cl)cc(NC(=O)c4cccc(-c5cccs5)c4)c3)cc2C(F)(F)F)CC1 | 22 | 33 | 196 nM | 253 nM | 5460 nM | 8360 nM | 1.3 | – | –
19 | CCN1CCN(Cc2ccc(NC(=O)c3cc(NC(=O)c4cncc(-c5cccs5)c4)ccc3F)cc2C(F)(F)F)CC1 | 6.8 | 11 | 491 nM | 981 nM | 6710 nM | 10800 nM | 2 | – | –
20 | O=C(Nc1ccnc(N2CCOCC2)c1)c1cc(Cl)cc(NC(=O)c2cncc(-c3cccs3)c2)c1 | > 27 | 20 | 700 nM | 739 nM | > 20000 nM | 14700 nM | 1.1 | – | –
21 | CCN1CCN(Cc2ccc(C(=O)Nc3cc(Cl)cc(NC(=O)c4cncc(-c5cccs5)c4)c3)cc2C(F)(F)F)CC1 | 88 | 68 | 73 nM | 104 nM | 9160 nM | 7030 nM | 1.4 | – | –
22 | O=C(Nc1cccc(C(F)(F)F)c1)c1cc(Cl)cc(NC(=O)c2cncc(-c3cccs3)c2)c1 | > 18 | > 18 | 541 nM | 1110 nM | > 20000 nM | > 20000 nM | 2.1 | – | –
23 | CCN1CCN(Cc2ccc(NC(=O)c3cc(Cl)cc(NCc4cncc(-c5cccs5)c4)c3)cc2C(F)(F)F)CC1 | 16 | 24 | 310 nM | 344 nM | 5590 nM | 8330 nM | 1.1 | – | –
